Reference: PubChem BioAssay (NCI)
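Protocol summary: plate cells (96-well), add compound at 5 concentrations, incubate 48 h, interpolate endpoints linearly. TGI: concentration producing complete growth inhibition.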

Assays:
Assay in all cases: NCI tumour cell line growth inhibition, 48 h
NCI-H460 lung = system: NCI-H460 lung
NCI-H522 lung = system: NCI-H522 lung
OVCAR-8 ovarian = system: OVCAR-8 ovarian
ACHN renal = system: ACHN renal
CAKI-1 renal = system: CAKI-1 renal
A549 NSCLC = system: A549 NSCLC
M19-MEL melanoma = system: M19-MEL melanoma
A498 renal = system: A498 renal
HL-60(TB) leukemia = system: HL-60(TB) leukemia
SF-268 CNS = system: SF-268 CNS
SK-MEL-2 melanoma = system: SK-MEL-2 melanoma
DMS 114 small cell lung = system: DMS 114 small cell lung
NCI-H226 lung = system: NCI-H226 lung
SN12C renal = system: SN12C renal
EKVX NSCLC = system: EKVX NSCLC
LXFL 529 NSCLC = system: LXFL 529 NSCLC
NCI-H23 lung = system: NCI-H23 lung
HCT-116 colon = system: HCT-116 colon
IGROV1 ovarian = system: IGROV1 ovarian
UACC-62 melanoma = system: UACC-62 melanoma
SK-OV-3 ovarian = system: SK-OV-3 ovarian
OVCAR-3 ovarian = system: OVCAR-3 ovarian
MOLT-4 leukemia = system: MOLT-4 leukemia
LOX IMVI melanoma = system: LOX IMVI melanoma
UO-31 renal = system: UO-31 renal
RPMI-8226 leukemia = system: RPMI-8226 leukemia
HOP-92 NSCLC = system: HOP-92 NSCLC
SW-620 colon = system: SW-620 colon
HCT-15 colon = system: HCT-15 colon
KM20L2 colon = system: KM20L2 colon
COLO 205 colon = system: COLO 205 colon
UACC-257 melanoma = system: UACC-257 melanoma
SK-MEL-28 melanoma = system: SK-MEL-28 melanoma
DMS 273 small cell lung = system: DMS 273 small cell lung
SNB-19 CNS = system: SNB-19 CNS
M14 melanoma = system: M14 melanoma
SNB-75 CNS = system: SNB-75 CNS
HOP-18 NSCLC = system: HOP-18 NSCLC
MALME-3M melanoma = system: MALME-3M melanoma
DLD-1 colon = system: DLD-1 colon
SK-MEL-5 melanoma = system: SK-MEL-5 melanoma
SF-539 CNS = system: SF-539 CNS
RXF-631 renal = system: RXF-631 renal
HT29 colon = system: HT29 colon
CCRF-CEM leukemia = system: CCRF-CEM leukemia
KM12 colon = system: KM12 colon
OVCAR-4 ovarian = system: OVCAR-4 ovarian
TK-10 renal = system: TK-10 renal
HOP-62 NSCLC = system: HOP-62 NSCLC
K-562 leukemia = system: K-562 leukemia
786-0 renal = system: 786-0 renal

Measured: TGI

NC(CCCNCc1ccccc1)C(=O)O (stereo unspecified)
> 100 µM: all assays above
